The supplement of paper PMC10307832

Assays:
Experiment in all cases: relative viability (nuclei count vs DMSO), 5 days (fraction); higher = more cells survive
Afatinib = compound: CN(C)C/C=C/C(=O)Nc1cc2c(Nc3ccc(F)c(Cl)c3)ncnc2cc1O[C@H]1CCOC1 [Afatinib]
Method in brief: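 Vehicle-anchored 1536-well plates of lung cancer cell lines, held overnight at 37 °C, were pinned with five library-drug doses (not always all listed) spaced by √10. No medium change followed over the next 5 days, after which the cells were fixed, permeabilised and Hoechst-stained together and imaged at 4×. Nuclei were counted with MetaXpress, and viability is treated-well nuclei over vehicle-well nuclei, taken as a median across plates. Plates passed with control CV below 25% and at least one doubling.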

Afatinib + Luminespib = compound: CN(C)C/C=C/C(=O)Nc1cc2c(Nc3ccc(F)c(Cl)c3)ncnc2cc1O[C@H]1CCOC1 [Afatinib] + CCNC(=O)c1noc(-c2cc(C(C)C)c(O)cc2O)c1-c1ccc(CN2CCOCC2)cc1 [Luminespib] (partner 0.01 µM)
Method in brief: (§1)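 Five library-drug doses in √10 steps were combined with a fixed anchor-drug dose, or a single drug was given alone, by pin tool to lung cancer cell lines in 1536-well plates the day after seeding. Nuclei were stained and counted after 5 days. Relative viability is the nuclei count in treated wells over that in vehicle wells, taken as the median of duplicate plates.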

Afatinib + Foretinib = compound: CN(C)C/C=C/C(=O)Nc1cc2c(Nc3ccc(F)c(Cl)c3)ncnc2cc1O[C@H]1CCOC1 [Afatinib] + COc1cc2c(Oc3ccc(NC(=O)C4(C(=O)Nc5ccc(F)cc5)CC4)cc3F)ccnc2cc1OCCCN1CCOCC1 [Foretinib] (partner 0.25 µM)
Method in brief: as §1

Afatinib + OSI-027 = compound: CN(C)C/C=C/C(=O)Nc1cc2c(Nc3ccc(F)c(Cl)c3)ncnc2cc1O[C@H]1CCOC1 [Afatinib] + COc1cccc2cc(-c3nc([C@H]4CC[C@H](C(=O)O)CC4)n4ncnc(N)c34)[nH]c12 [OSI-027] (partner 0.5 µM)
Method in brief: as §1

Afatinib + Tozasertib = compound: CN(C)C/C=C/C(=O)Nc1cc2c(Nc3ccc(F)c(Cl)c3)ncnc2cc1O[C@H]1CCOC1 [Afatinib] + Cc1cc(Nc2cc(N3CCN(C)CC3)nc(Sc3ccc(NC(=O)C4CC4)cc3)n2)n[nH]1 [Tozasertib] (partner 0.1 µM)
Method in brief: as §1

Afatinib + Dasatinib = compound: CN(C)C/C=C/C(=O)Nc1cc2c(Nc3ccc(F)c(Cl)c3)ncnc2cc1O[C@H]1CCOC1 [Afatinib] + Cc1nc(Nc2ncc(C(=O)Nc3c(C)cccc3Cl)s2)cc(N2CCN(CCO)CC2)n1 [Dasatinib] (partner 0.075 µM)
Method in brief: as §1

Afatinib + Phenformin = compound: CN(C)C/C=C/C(=O)Nc1cc2c(Nc3ccc(F)c(Cl)c3)ncnc2cc1O[C@H]1CCOC1 [Afatinib] + N=C(N)NC(=N)NCCc1ccccc1 [Phenformin] (partner 250 µM)
Method in brief: as §1

Afatinib + Trametinib = compound: CN(C)C/C=C/C(=O)Nc1cc2c(Nc3ccc(F)c(Cl)c3)ncnc2cc1O[C@H]1CCOC1 [Afatinib] + CC(=O)Nc1cccc(-n2c(=O)n(C3CC3)c(=O)c3c(Nc4ccc(I)cc4F)n(C)c(=O)c(C)c32)c1 [Trametinib] (partner 0.02 µM)
Method in brief: as §1

Afatinib + Palbociclib = compound: CN(C)C/C=C/C(=O)Nc1cc2c(Nc3ccc(F)c(Cl)c3)ncnc2cc1O[C@H]1CCOC1 [Afatinib] + CC(=O)c1c(C)c2cnc(Nc3ccc(N4CCNCC4)cn3)nc2n(C2CCCC2)c1=O [Palbociclib] (partner 0.5 µM)
Method in brief: as §1

Afatinib + AZD7762 = compound: CN(C)C/C=C/C(=O)Nc1cc2c(Nc3ccc(F)c(Cl)c3)ncnc2cc1O[C@H]1CCOC1 [Afatinib] + NC(=O)Nc1cc(-c2cccc(F)c2)sc1C(=O)N[C@H]1CCCNC1 [AZD7762] (partner 0.2 µM)
Method in brief: as §1

Afatinib + Pemetrexed = compound: CN(C)C/C=C/C(=O)Nc1cc2c(Nc3ccc(F)c(Cl)c3)ncnc2cc1O[C@H]1CCOC1 [Afatinib] + Nc1nc2[nH]cc(CCc3ccc(C(=O)N[C@@H](CCC(=O)O)C(=O)O)cc3)c2c(=O)[nH]1 [Pemetrexed] (partner 0.2 µM)
Method in brief: as §1

Afatinib + Decitabine = compound: CN(C)C/C=C/C(=O)Nc1cc2c(Nc3ccc(F)c(Cl)c3)ncnc2cc1O[C@H]1CCOC1 [Afatinib] + Nc1ncn([C@H]2C[C@H](O)[C@@H](CO)O2)c(=O)n1 [Decitabine] (partner 2 µM)
Method in brief: as §1

Afatinib + Vorinostat = compound: CN(C)C/C=C/C(=O)Nc1cc2c(Nc3ccc(F)c(Cl)c3)ncnc2cc1O[C@H]1CCOC1 [Afatinib] + O=C(CCCCCCC(=O)Nc1ccccc1)NO [Vorinostat] (partner 1 µM)
Method in brief: as §1

Afatinib + Olaparib = compound: CN(C)C/C=C/C(=O)Nc1cc2c(Nc3ccc(F)c(Cl)c3)ncnc2cc1O[C@H]1CCOC1 [Afatinib] + O=C(c1cc(Cc2n[nH]c(=O)c3ccccc23)ccc1F)N1CCN(C(=O)C2CC2)CC1 [Olaparib] (partner 8 µM)
Method in brief: as §1

NCI-H1623 showed a relative viability (Afatinib; 0.005 µM) of 0.822, a relative viability (Afatinib; 0.01581 µM) of 0.813 and a relative viability (Afatinib; 0.05 µM) of 0.42. The relative viability (Afatinib; 0.1581 µM) was 0.221, the relative viability (Afatinib; 0.5 µM) was 0.267 and the relative viability (Afatinib + Luminespib; first compound 0.005 µM) was 0.489. The relative viability (Afatinib + Luminespib; first compound 0.01581 µM) was 0.454, the relative viability (Afatinib + Luminespib; first compound 0.05 µM) was 0.325 and the relative viability (Afatinib + Luminespib; first compound 0.1581 µM) was 0.214. It also gave a relative viability (Afatinib + Luminespib; first compound 0.5 µM) of 0.281, a relative viability (Afatinib + Foretinib; first compound 0.005 µM) of 0.694 and a relative viability (Afatinib + Foretinib; first compound 0.01581 µM) of 0.597. For the same cell line, the relative viability (Afatinib + Foretinib; first compound 0.05 µM) was 0.414, the relative viability (Afatinib + Foretinib; first compound 0.1581 µM) was 0.213 and the relative viability (Afatinib + OSI-027; first compound 0.005 µM) was 0.394. For the same cell line, the relative viability (Afatinib + OSI-027; first compound 0.01581 µM) was 0.324, the relative viability (Afatinib + OSI-027; first compound 0.05 µM) was 0.255 and the relative viability (Afatinib + OSI-027; first compound 0.1581 µM) was 0.189. It also gave a relative viability (Afatinib + OSI-027; first compound 0.5 µM) of 0.243, a relative viability (Afatinib + Tozasertib; first compound 0.005 µM) of 0.397 and a relative viability (Afatinib + Tozasertib; first compound 0.01581 µM) of 0.346. It also gave a relative viability (Afatinib + Tozasertib; first compound 0.05 µM) of 0.285, a relative viability (Afatinib + Tozasertib; first compound 0.1581 µM) of 0.121 and a relative viability (Afatinib + Tozasertib; first compound 0.5 µM) of 0.148. It also gave a relative viability (Afatinib + Dasatinib; first compound 0.005 µM) of 0.446, a relative viability (Afatinib + Dasatinib; first compound 0.01581 µM) of 0.472 and a relative viability (Afatinib + Dasatinib; first compound 0.05 µM) of 0.375. The relative viability (Afatinib + Dasatinib; first compound 0.1581 µM) was 0.198, the relative viability (Afatinib + Dasatinib; first compound 0.5 µM) was 0.226 and the relative viability (Afatinib + Phenformin; first compound 0.005 µM) was 0.548. The relative viability (Afatinib + Phenformin; first compound 0.01581 µM) was 0.499, the relative viability (Afatinib + Phenformin; first compound 0.05 µM) was 0.36 and the relative viability (Afatinib + Phenformin; first compound 0.1581 µM) was 0.16. The relative viability (Afatinib + Phenformin; first compound 0.5 µM) was 0.431.

SW 900 was tested, and the relative viability (Afatinib; 0.005 µM) was 0.951, the relative viability (Afatinib; 0.01581 µM) was 0.692 and the relative viability (Afatinib; 0.05 µM) was 0.844. The relative viability (Afatinib; 0.1581 µM) was 0.872, the relative viability (Afatinib; 0.5 µM) was 0.828 and the relative viability (Afatinib + Trametinib; first compound 0.005 µM) was 0.572. It also gave a relative viability (Afatinib + Trametinib; first compound 0.01581 µM) of 0.657, a relative viability (Afatinib + Trametinib; first compound 0.05 µM) of 0.759 and a relative viability (Afatinib + Trametinib; first compound 0.1581 µM) of 0.745. It also gave a relative viability (Afatinib + Trametinib; first compound 0.5 µM) of 0.581, a relative viability (Afatinib + Palbociclib; first compound 0.005 µM) of 0.464 and a relative viability (Afatinib + Palbociclib; first compound 0.01581 µM) of 0.354. The relative viability (Afatinib + Palbociclib; first compound 0.05 µM) was 0.438, the relative viability (Afatinib + Palbociclib; first compound 0.1581 µM) was 0.43 and the relative viability (Afatinib + Palbociclib; first compound 0.5 µM) was 0.49. It also gave a relative viability (Afatinib + Luminespib; first compound 0.005 µM) of 0.182, a relative viability (Afatinib + Luminespib; first compound 0.01581 µM) of 0.198 and a relative viability (Afatinib + Luminespib; first compound 0.1581 µM) of 0.187. It also gave a relative viability (Afatinib + Luminespib; first compound 0.5 µM) of 0.173, a relative viability (Afatinib + Foretinib; first compound 0.005 µM) of 1.06 and a relative viability (Afatinib + Foretinib; first compound 0.01581 µM) of 1.18. For the same cell line, the relative viability (Afatinib + Foretinib; first compound 0.05 µM) was 0.873, the relative viability (Afatinib + Foretinib; first compound 0.1581 µM) was 0.725 and the relative viability (Afatinib + Foretinib; first compound 0.5 µM) was 0.679. For the same cell line, the relative viability (Afatinib + OSI-027; first compound 0.005 µM) was 0.668, the relative viability (Afatinib + OSI-027; first compound 0.01581 µM) was 0.395 and the relative viability (Afatinib + OSI-027; first compound 0.05 µM) was 0.605. It also gave a relative viability (Afatinib + OSI-027; first compound 0.1581 µM) of 0.639, a relative viability (Afatinib + OSI-027; first compound 0.5 µM) of 0.347 and a relative viability (Afatinib + Tozasertib; first compound 0.005 µM) of 0.576. The relative viability (Afatinib + Tozasertib; first compound 0.01581 µM) was 0.646, the relative viability (Afatinib + Tozasertib; first compound 0.05 µM) was 0.61 and the relative viability (Afatinib + Tozasertib; first compound 0.1581 µM) was 0.438. It also gave a relative viability (Afatinib + Tozasertib; first compound 0.5 µM) of 0.444, a relative viability (Afatinib + Dasatinib; first compound 0.005 µM) of 0.622 and a relative viability (Afatinib + Dasatinib; first compound 0.01581 µM) of 0.323. The relative viability (Afatinib + Dasatinib; first compound 0.05 µM) was 0.683, the relative viability (Afatinib + Dasatinib; first compound 0.1581 µM) was 0.547 and the relative viability (Afatinib + Dasatinib; first compound 0.5 µM) was 0.435. The relative viability (Afatinib + Phenformin; first compound 0.005 µM) was 0.642, the relative viability (Afatinib + Phenformin; first compound 0.01581 µM) was 0.499 and the relative viability (Afatinib + Phenformin; first compound 0.05 µM) was 0.682. For the same cell line, the relative viability (Afatinib + Phenformin; first compound 0.1581 µM) was 0.486, the relative viability (Afatinib + Phenformin; first compound 0.5 µM) was 0.399 and the relative viability (Afatinib + AZD7762; first compound 0.005 µM) was 0.48. For the same cell line, the relative viability (Afatinib + AZD7762; first compound 0.01581 µM) was 0.546, the relative viability (Afatinib + AZD7762; first compound 0.05 µM) was 0.615 and the relative viability (Afatinib + AZD7762; first compound 0.1581 µM) was 0.501. The relative viability (Afatinib + AZD7762; first compound 0.5 µM) was 0.548, the relative viability (Afatinib + Pemetrexed; first compound 0.005 µM) was 0.467 and the relative viability (Afatinib + Pemetrexed; first compound 0.01581 µM) was 0.445. The relative viability (Afatinib + Pemetrexed; first compound 0.05 µM) was 0.497, the relative viability (Afatinib + Pemetrexed; first compound 0.1581 µM) was 0.487 and the relative viability (Afatinib + Pemetrexed; first compound 0.5 µM) was 0.448. It also gave a relative viability (Afatinib + Decitabine; first compound 0.005 µM) of 0.502, a relative viability (Afatinib + Decitabine; first compound 0.01581 µM) of 0.334 and a relative viability (Afatinib + Decitabine; first compound 0.05 µM) of 0.378. It also gave a relative viability (Afatinib + Decitabine; first compound 0.1581 µM) of 0.398, a relative viability (Afatinib + Decitabine; first compound 0.5 µM) of 0.443 and a relative viability (Afatinib + Vorinostat; first compound 0.005 µM) of 0.597. For the same cell line, the relative viability (Afatinib + Vorinostat; first compound 0.01581 µM) was 0.364, the relative viability (Afatinib + Vorinostat; first compound 0.05 µM) was 0.544 and the relative viability (Afatinib + Vorinostat; first compound 0.1581 µM) was 0.428. The relative viability (Afatinib + Vorinostat; first compound 0.5 µM) was 0.461, the relative viability (Afatinib + Olaparib; first compound 0.005 µM) was 0.757 and the relative viability (Afatinib + Olaparib; first compound 0.01581 µM) was 0.726. It also gave a relative viability (Afatinib + Olaparib; first compound 0.05 µM) of 0.89, a relative viability (Afatinib + Olaparib; first compound 0.1581 µM) of 0.664 and a relative viability (Afatinib + Olaparib; first compound 0.5 µM) of 0.77.
